Experimental findings from patent US9365533B2, “Coumarin derivative” (NIPPON ZOKI PHARMACEUTICAL CO., LTD., priority 2012, dated 2016) are described below.

For test [1], the system named is cartilage pieces of bovine metacarpophalangeal joint. The test can be described thus: Suppressive action to cartilage destruction: release of sGAG induced by IL-1α from cartilage pieces. Conditions: 25 μmol/L test substance, 2 h pretreatment, human recombinant IL-1α 3 ng/mL, 4 days at 37° C.; for inhibition at 25 µM: Bos taurus, 96 h, read-out: sGAG Releasing Suppressive Rate (%). The class given is cell-based. The procedure:
Evaluation of Suppressive Action to Cartilage Destruction [Release of sGAG Induced by Interleukin-1α (IL-1α)]
(1) Incubation of Cartilage Pieces
Each four cartilage pieces of bovine metacarpophalangeal joint were placed in each well of a 48-well plate and pretreated for 2 hours with a basal medium [D-MEM (Dulbecco's Modified Eagle Medium) containing 2 mmol/L of glutamine, 25 mmol/L of Hepes, 100 μg/mL of streptomycin, 100 IU/mL of penicillin and 5.6 μg/mL of amphotericin B] containing 25 μmol/L of a test substance. Human recombinant IL-1α (3 ng/mL) was added thereto followed by incubating at 37° C. for 4 days in a CO2 incubator set at 5 vol % of CO2. Culture supernatant and cartilage pieces were recovered and stored by freezing until the measurement for each of them.
(2) Measurement of the Amount of sGAG and Calculation of the Suppressive Rate for the Release of sGAG
The recovered cartilage pieces were treated with a papain solution [containing 1 mg/mL of papain, 100 mmol/L of sodium phosphate (pH 6.5), 5 mmol/L of L-cysteine and 5 mmol/L of disodium ethylenediaminetetraacetate (EDTA)] at 65° C. for about 16 hours to solubilize. Amount of sGAG in the resulting extract was measured using an sGAG Alcian Blue Binding Kit (Wieslab AB) which is a quantitative kit to which a Alcian blue staining protocol is applied. sGAG in the culture supernatant after the incubation was measured without subjecting to a papain treatment. Each releasing rate of sGAG was determined by the following formula to calculate the suppressive rate for the release of sGAG. Releasing rate (%) of sGAG={(Total sGAG amount in the culture supernatant)/[(Total sGAG amount in the culture supernatant)+(Total sGAG amount in the cartilage pieces)]}×100 Suppressive rate (%) for release of sGAG={[Releasing rate of sGAG (IL-1α stimulation)−Releasing rate of sGAG (Test substance)]/[Releasing rate of sGAG (IL-1α stimulation)−Releasing rate of sGAG (Non-stimulation)]}×100

The subject of a further test is HFLS-OA cells. As to the kind of experiment: Suppressive action to TNF-α-induced proliferation of synovial cells (HFLS-OA), BrdU ELISA. Format: cell-based. Conditions: 200 μmol/L test substance, human recombinant TNF-α 10 ng/mL, 5 days, BrdU incorporation increase by TNF-α = 100%; for activity at 200 µM: Synovial cell, 120 h, read-out: Synovial Cell Proliferation Rate (%). The procedure: Evaluation of Suppressive Action to Cell Proliferation of Synovial Cells (HFLS-OA) Derived from Tissues of Human Osteoarthritis
(1) Incubation of HFLS-OA Cells
HFLS-OA cells were sown onto a 96-well plate so as to make them 10^4 cells/well/100 μL in a D-MEM containing 2 vol % of fetal bovine serum (FBS) and incubated for 24 hours. A test substance (200 μmol/L) and human recombinant TNF-α (10 ng/mL) were added thereto followed by incubating for 5 days.
(2) Measurement of Action to HFLS-OA Cell Proliferation
A kit [Cell Proliferation ELISA, BrdU (colorimetric) (Roche Diagnostics)] was used and measurement was conducted according to the protocol attached to the kit. HFLS-OA cells were incubated for 3 days and 10 μL of 5-bromo-2′-deoxyuridine (BrdU) dissolved in a phosphate buffered saline (PBS) (100 μmol/L, pH 7.4) was added to each well followed by incubating for 48 hours more. After the culture supernatant was removed from each well, 200 μL/well of an immobilization/denaturation solution was added thereto and the mixture was allowed to stand for 30 minutes whereby immobilization of the cells and denaturation of DNA were conducted. After the immobilization/denaturation solution was completely removed, 100 μL of a peroxidase-labeled anti-BrdU antibody solution was added thereto and the mixture was made to react at room temperature for 90 minutes. After washing with PBS, 100 μL of a substrate liquid (tetramethylbenzidine) was added to each well and the absorbance was measured. A cell proliferation rate upon addition of each test substance was calculated where an increase in incorporation of BrdU upon addition of TNF-α was defined as 100% of cell proliferation rate.
On the technique in general: Incorporation of labelled thymidine or its analogues reports DNA synthesis.

For the compound `N#Cc1ccc(S(=O)(=O)Oc2cccc3cc(NS(=O)(=O)c4ccccc4)c(=O)oc23)cc1` [Compound 20, 3-(Benzenesulfonylamino)-2-oxochromen-8-yl 4-cyanobenzenesulfonate], in test [1], the inhibition at 25 µM turned out to be 35%. For the same compound, the activity at 200 µM in the test on HFLS-OA cells is -42.1%.

With `COc1ccc(S(=O)(=O)Nc2cc3cccc(OS(=O)(=O)c4ccc(OC)cc4)c3oc2=O)cc1` [Compound 1, 3-[(4-Methoxyphenyl)sulfonylamino]-2-oxochromen-8-yl 4-methoxybenzenesulfonate], in test [1], the inhibition at 25 µM amounted to 93%. Moreover, the activity at 200 µM in the test with HFLS-OA cells is -39.1%.

For the compound `O=c1oc2c(OS(=O)(=O)c3cccc([N+](=O)[O-])c3)cccc2cc1NS(=O)(=O)c1cccc(Br)c1` [Compound 54, 3-[(3-Bromophenyl)sulfonylamino]-2-oxochromen-8-yl 3-nitrobenzenesulfonate], in test [1], the inhibition at 25 µM was 136%. Further, the activity at 200 µM in the test with HFLS-OA cells was -44.4%.

Consider `O=c1oc2c(OS(=O)(=O)c3cccc([N+](=O)[O-])c3)cccc2cc1NS(=O)(=O)c1ccc(C(F)(F)F)cc1` [Compound 67, 2-Oxo-3-[[4-(trifluoromethyl)phenyl]sulfonylamino]-chromen-8-yl 3-nitrobenzenesulfonate], for which the inhibition at 25 µM in test [1] was found to be 115%. Further, in the test with HFLS-OA cells, the activity at 200 µM is -38.9%.

For the compound `O=c1oc2c(OS(=O)(=O)c3cccc(C(F)(F)F)c3)cccc2cc1NS(=O)(=O)c1ccc(-c2ccccc2)cc1` [Compound 52, 2-Oxo-3-[(4-phenylphenyl)sulfonylamino]chromen-8-yl 3-(trifluoromethyl)benzenesulfonate], in test [1], the inhibition at 25 µM was 126%. Moreover, the activity at 200 µM in the test on HFLS-OA cells is -35.5%.

`O=c1oc2c(OS(=O)(=O)c3cccc(C(F)(F)F)c3)cccc2cc1NS(=O)(=O)c1cccc(C(F)(F)F)c1` [Compound 33, 2-Oxo-3-[[3-(trifluoromethyl)phenyl]sulfonylamino]-chromen-8-yl 3-(trifluoromethyl)benzenesulfonate]: the inhibition at 25 µM in test [1] was 147%. In addition, in the test on HFLS-OA cells, the activity at 200 µM is -40%.

For `O=c1oc2c(OS(=O)(=O)c3cccc([N+](=O)[O-])c3)cccc2cc1NS(=O)(=O)c1cccc([N+](=O)[O-])c1` [Compound 17, 3-[(3-Nitrophenyl)sulfonylamino]-2-oxochromen-8-yl 3-nitrobenzenesulfonate], in test [1], the inhibition at 25 µM is 156%. Besides, the activity at 200 µM with HFLS-OA cells was -24.9%.

For the compound `O=c1oc2c(OS(=O)(=O)c3cccc(C(F)(F)F)c3)cccc2cc1NS(=O)(=O)c1cccc([N+](=O)[O-])c1` [Compound 51], the “sGAG Releasing Suppressive Rate (%)” value in test [1] is 141%. The “Synovial Cell Proliferation Rate (%)” value in the test on HFLS-OA cells is −36.5%.

Regarding `O=c1oc2c(OS(=O)(=O)c3ccccc3[N+](=O)[O-])cccc2cc1NS(=O)(=O)c1ccccc1[N+](=O)[O-]` [Compound 18, 3-[(2-Nitrophenyl)sulfonylamino]-2-oxochromen-8-yl 2-nitrobenzenesulfonate], the inhibition at 25 µM in test [1] was found to be 81%. The activity at 200 µM with HFLS-OA cells was -23.8%.

For `O=c1oc2c(OS(=O)(=O)c3ccc(C(F)(F)F)cc3)cccc2cc1NS(=O)(=O)c1cccc([N+](=O)[O-])c1` [Compound 69, 3-[(3-Nitrophenyl)sulfonylamino]-2-oxochromen-8-yl 4-(trifluoromethyl)benzenesulfonate], in test [1], the inhibition at 25 µM worked out at 126%. Besides, the activity at 200 µM with HFLS-OA cells is -40.6%.

On to `O=c1oc2c(OS(=O)(=O)c3ccc(-c4ccccc4)cc3)cccc2cc1NS(=O)(=O)c1ccc(C(F)(F)F)cc1` [Compound 64, 2-Oxo-3-[[4-(trifluoromethyl)phenyl]sulfonylamino]-chromen-8-yl 4-phenylbenzenesulfonate], for which the inhibition at 25 µM in test [1] is 136%. In the test on HFLS-OA cells, the activity at 200 µM is -45.9%.

With `O=c1oc2c(OS(=O)(=O)c3cccc(C(F)(F)F)c3)cccc2cc1NS(=O)(=O)c1ccccc1` [Compound 35, 3-(Benzenesulfonamide)-2-oxochromen-8-yl 3-(trifluoromethyl)benzenesulfonate], the “sGAG Releasing Suppressive Rate (%)” value in test [1] was found to be 103%. Moreover, the “Synovial Cell Proliferation Rate (%)” value with HFLS-OA cells is recorded as −31.5%.

For `O=c1oc2c(OS(=O)(=O)c3ccccc3)cccc2cc1NS(=O)(=O)c1cccc(Br)c1` [Compound 31, 3-[(3-Bromophenyl)sulfonylamino]-2-oxochromen-8-yl benzenesulfonate], the inhibition at 25 µM in test [1] was determined as 135%. Besides, in the test with HFLS-OA cells, the activity at 200 µM is -37.1%.

For `Nc1ccc(S(=O)(=O)Nc2cc3cccc(OS(=O)(=O)c4cccc(C(F)(F)F)c4)c3oc2=O)cc1` [Compound 47, 3-[(4-Aminophenyl)sulfonylamino]-2-oxochromen-8-yl 3-(trifluoromethyl)benzenesulfonate], the inhibition at 25 µM in test [1] came out at 69%. In addition, the activity at 200 µM in the test with HFLS-OA cells is -40.1%.

Take `N#Cc1cccc(S(=O)(=O)Nc2cc3cccc(OS(=O)(=O)c4ccccc4)c3oc2=O)c1` [Compound 22, 3-[(3-Cyanophenyl)sulfonylamino]-2-oxochromen-8-yl benzenesulfonate]: the inhibition at 25 µM in test [1] came out at 92%. Moreover, in the test with HFLS-OA cells, the activity at 200 µM is -38.4%.

As for `O=c1oc2c(OS(=O)(=O)c3cccc([N+](=O)[O-])c3)cccc2cc1NS(=O)(=O)c1cccc(C(F)(F)F)c1` [Compound 50, 2-Oxo-3-[[3-(trifluoromethyl)phenyl]sulfonylamino]-chromen-8-yl 3-nitrobenzenesulfonate], the inhibition at 25 µM in test [1] was 163%. For the same compound, the activity at 200 µM in the test on HFLS-OA cells is -46.4%.

Turning to `O=c1oc2c(OS(=O)(=O)c3ccccc3)cccc2cc1NS(=O)(=O)c1ccc(F)c(F)c1` [Compound 26, 3-[(3,4-Difluorophenyl)sulfonylamino]-2-oxochromen-8-yl benzenesulfonate], the inhibition at 25 µM in test [1] stood at 97%. In addition, the activity at 200 µM in the test on HFLS-OA cells is -38.4%.

In the case of `O=c1oc2c(OS(=O)(=O)c3ccc(C(F)(F)F)cc3)cccc2cc1NS(=O)(=O)c1ccc(-c2ccccc2)cc1` [Compound 70, 2-Oxo-3-[(4-phenylphenyl)sulfonylamino]chromen-8-yl 4-(trifluoromethyl)benzenesulfonate], the inhibition at 25 µM in test [1] was determined as 103%. Moreover, the activity at 200 µM in the test with HFLS-OA cells was -39%.

`O=c1oc2c(OS(=O)(=O)c3ccc(-c4ccccc4)cc3)cccc2cc1NS(=O)(=O)c1cccc(C(F)(F)F)c1` [Compound 63, 2-Oxo-3-[[3-(trifluoromethyl)phenyl]sulfonylamino]-chromen-8-yl 4-phenylbenzenesulfonate]: the inhibition at 25 µM in test [1] was 137%. Moreover, in the test with HFLS-OA cells, the activity at 200 µM was -47.9%.

With `O=c1oc2c(OS(=O)(=O)c3cccs3)cccc2cc1NS(=O)(=O)c1cccc([N+](=O)[O-])c1` [Compound 43, 3-[(3-Nitrophenyl)sulfonylamino]-2-oxochromen-8-yl thiophene-2-sulfonate], the inhibition at 25 µM in test [1] came out at 107%. In the test with HFLS-OA cells, the activity at 200 µM was -30.3%.

On to `O=c1oc2c(OS(=O)(=O)c3cccc(Br)c3)cccc2cc1NS(=O)(=O)c1cccc(Br)c1` [Compound 32, 3-[(3-Bromophenyl)sulfonylamino]-2-oxochromen-8-yl 3-bromobenzenesulfonate], for which the inhibition at 25 µM in test [1] was 202%. Moreover, the activity at 200 µM in the test with HFLS-OA cells is -41.1%.
